These results are taken from patent publication US12583823B2, “Crystal form of Daprodustat, preparation method therefor and use thereof” (priority 2019, dated 2026).

The data set is described as follows: Saturation solubility in water (HPLC). It counts as physicochemical. The note with it: for Saturation solubility: stirring at room temperature for 12 h, HPLC. The source says:
Test product: the crystal form M, crystal form CS1, crystal form CS9 and crystal form K of the compound of the formula (I), preparation methods thereof being respectively shown in Example 1, Comparative example 1, Comparative example 2 and Comparative example 3.
The operating conditions of HPLC were as follows: • Instrument: high performance liquid chromatograph (model: Thermo U3000) • Chromatographic column: Agilent C18 column (5 μm, 150 mm×4.6 mm) • Mobile phase composition and gradient elution procedure:
• Detection wavelength: 260.4 nm • Flow rate: 1 mL/min • Injection volume: 15 μL • Column temperature: 30° C.

With `O=C(O)CNC(=O)C1C(=O)N(C2CCCCC2)C(=O)N(C2CCCCC2)C1=O` [Crystal form M, N-[(1,3-dicyclohexylhexahydro-2,4,6-trioxo-5-pyrimidinyl)carbonyl]glycine], the Saturation solubility is 42.47 µg/mL. Besides, for the setting “result in words”, the “Saturation solubility compared with those of the crystal form K, the crystal form CS1 and the crystal form CS9” value is reported as “significantly higher”.
Compound `O=C(O)CNC(=O)C1C(=O)N(C2CCCCC2)C(=O)N(C2CCCCC2)C1=O` [Crystal form K, N-[(1,3-dicyclohexylhexahydro-2,4,6-trioxo-5-pyrimidinyl)carbonyl]glycine] showed a Saturation solubility of 23.36 µg/mL.
Turning to `O=C(O)CNC(=O)C1C(=O)N(C2CCCCC2)C(=O)N(C2CCCCC2)C1=O` [Crystal form CS1, N-[(1,3-dicyclohexylhexahydro-2,4,6-trioxo-5-pyrimidinyl)carbonyl]glycine, reference compound], the Saturation solubility is 24.48 µg/mL.
On to `O=C(O)CNC(=O)C1C(=O)N(C2CCCCC2)C(=O)N(C2CCCCC2)C1=O` [Crystal form CS9, N-[(1,3-dicyclohexylhexahydro-2,4,6-trioxo-5-pyrimidinyl)carbonyl]glycine, reference compound], for which the Saturation solubility was 19.4 µg/mL.
